Reference: ChEMBL document CHEMBL4828768, “Talaromynoids A-I, Highly Oxygenated Meroterpenoids from the Marine-Derived Fungus Talaromyces purpureogenus SCSIO 41517 and Their Lipid Accumulation Inhibitory Activities” (J Nat Prod, 2021)

Each compound was assayed against T1, Tyrosine-protein phosphatase non-receptor type 1 (Homo sapiens) (UniProt P18031) (assay: Inhibition of human recombinant PTP1B expressed in Escherichia coli assessed as inhibition of phosphatase activity by measuring p-nitrophenyl phosphate at 6.7 microg/ml measured after 60 mins). Details: dose 6.7 µg/ml.
T1 sequence (whole entry): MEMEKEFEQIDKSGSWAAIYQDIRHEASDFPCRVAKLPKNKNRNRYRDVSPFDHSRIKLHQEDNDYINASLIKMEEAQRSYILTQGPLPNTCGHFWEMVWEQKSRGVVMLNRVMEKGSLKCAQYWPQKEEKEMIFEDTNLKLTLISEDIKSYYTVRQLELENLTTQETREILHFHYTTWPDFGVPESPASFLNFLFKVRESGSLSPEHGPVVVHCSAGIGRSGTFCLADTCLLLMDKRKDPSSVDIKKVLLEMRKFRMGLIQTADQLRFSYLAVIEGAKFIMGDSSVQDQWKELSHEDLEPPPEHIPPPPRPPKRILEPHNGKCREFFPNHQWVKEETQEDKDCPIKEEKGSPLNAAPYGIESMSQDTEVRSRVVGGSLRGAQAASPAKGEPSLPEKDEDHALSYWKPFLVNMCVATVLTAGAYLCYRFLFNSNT
For `COC(=O)[C@]12C3=C(C)O[C@@H]4OC(=O)[C@](C)(C[C@H]5C(C)=C6CC(=O)O[C@@]6(C(C)(C)O)[C@@H](C[C@@]51C)O3)[C@@H]42`, the inhibition was < 60%. With `COC(=O)CC1=C(C)[C@@H]2C[C@@]3(C)C(=O)O[C@H]4O[C@@H](C)[C@@]5(O)O[C@@H]([C@@H]6O[C@]16C(C)(C)O)[C@]2(C)[C@@]5(C(=O)OC)[C@H]43` the inhibition was < 60%. `CC1=C2CC(=O)OC(C)(C)[C@]23O[C@@H]3[C@@H]2O[C@@]3(O)[C@@H](C)O[C@H]4OC(=O)[C@]5(C)C[C@H]1[C@]2(C)[C@@]31C(=O)O[C@@]415` was tested, and the inhibition was < 60%. For `COC(=O)[C@]12C3=C(C)O[C@@H]4OC(=O)[C@](C)(C[C@H]5C(C)=C6CC(=O)O[C@@]6(C(C)(C)O)[C@H](O3)[C@H](O)[C@@]51C)[C@@H]42`, the inhibition was < 60%.

These compounds were tested against T2, Receptor-type tyrosine-protein phosphatase C (Homo sapiens) (UniProt P08575) (assay: Inhibition of human recombinant CD45 expressed in Escherichia coli assessed as inhibition of phosphatase activity by measuring p-nitrophenyl phosphate at 6.7 microg/ml measured after 60 mins). Details: dose 6.7 µg/ml.
T2 sequence (whole entry): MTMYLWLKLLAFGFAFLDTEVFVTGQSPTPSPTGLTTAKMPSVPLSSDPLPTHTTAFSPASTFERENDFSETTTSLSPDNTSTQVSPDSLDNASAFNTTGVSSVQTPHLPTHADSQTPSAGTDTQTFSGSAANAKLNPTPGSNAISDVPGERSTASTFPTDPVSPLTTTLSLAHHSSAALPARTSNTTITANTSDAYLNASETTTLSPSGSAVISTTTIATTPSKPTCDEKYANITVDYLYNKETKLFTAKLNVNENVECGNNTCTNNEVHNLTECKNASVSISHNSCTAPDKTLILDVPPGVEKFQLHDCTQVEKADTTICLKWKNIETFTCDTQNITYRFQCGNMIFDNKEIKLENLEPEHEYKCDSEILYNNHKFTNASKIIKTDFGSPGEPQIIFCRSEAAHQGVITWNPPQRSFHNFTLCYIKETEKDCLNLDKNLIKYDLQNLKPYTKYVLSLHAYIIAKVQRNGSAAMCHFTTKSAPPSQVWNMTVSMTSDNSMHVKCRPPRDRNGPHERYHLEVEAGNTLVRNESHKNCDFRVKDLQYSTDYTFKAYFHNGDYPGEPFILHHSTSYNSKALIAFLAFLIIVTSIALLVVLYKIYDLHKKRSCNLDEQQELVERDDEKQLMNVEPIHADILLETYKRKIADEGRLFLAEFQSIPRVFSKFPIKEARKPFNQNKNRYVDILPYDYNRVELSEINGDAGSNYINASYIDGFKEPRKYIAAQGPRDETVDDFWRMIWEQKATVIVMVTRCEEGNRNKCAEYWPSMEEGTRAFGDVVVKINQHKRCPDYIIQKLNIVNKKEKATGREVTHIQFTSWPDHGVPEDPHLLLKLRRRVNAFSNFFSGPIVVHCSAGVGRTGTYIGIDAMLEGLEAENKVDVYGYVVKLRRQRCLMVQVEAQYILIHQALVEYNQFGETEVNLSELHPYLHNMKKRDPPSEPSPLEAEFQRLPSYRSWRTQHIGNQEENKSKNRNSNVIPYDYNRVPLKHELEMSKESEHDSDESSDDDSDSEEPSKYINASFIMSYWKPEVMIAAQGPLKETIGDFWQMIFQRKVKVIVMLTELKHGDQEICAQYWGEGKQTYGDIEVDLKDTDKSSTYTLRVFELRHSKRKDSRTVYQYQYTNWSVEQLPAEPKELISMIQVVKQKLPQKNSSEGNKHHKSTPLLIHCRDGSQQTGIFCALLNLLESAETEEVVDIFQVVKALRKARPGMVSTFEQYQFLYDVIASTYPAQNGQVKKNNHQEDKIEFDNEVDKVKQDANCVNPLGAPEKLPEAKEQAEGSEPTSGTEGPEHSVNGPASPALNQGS
For `COC(=O)[C@]12C3=C(C)O[C@@H]4OC(=O)[C@](C)(C[C@H]5C(C)=C6CC(=O)O[C@@]6(C(C)(C)O)[C@@H](C[C@@]51C)O3)[C@@H]42`, the inhibition was < 60%. In the case of `COC(=O)CC1=C(C)[C@@H]2C[C@@]3(C)C(=O)O[C@H]4O[C@@H](C)[C@@]5(O)O[C@@H]([C@@H]6O[C@]16C(C)(C)O)[C@]2(C)[C@@]5(C(=O)OC)[C@H]43`, the inhibition is reported as < 60%. In the case of `CC1=C2CC(=O)OC(C)(C)[C@]23O[C@@H]3[C@@H]2O[C@@]3(O)[C@@H](C)O[C@H]4OC(=O)[C@]5(C)C[C@H]1[C@]2(C)[C@@]31C(=O)O[C@@]415`, the inhibition is reported as < 60%. `COC(=O)[C@]12C3=C(C)O[C@@H]4OC(=O)[C@](C)(C[C@H]5C(C)=C6CC(=O)O[C@@]6(C(C)(C)O)[C@H](O3)[C@H](O)[C@@]51C)[C@@H]42` was tested, and the inhibition was < 60%.

What follows are compounds tested against Tyrosine-protein phosphatase non-receptor type 6 (Homo sapiens) (UniProt P29350) (assay: Inhibition of human recombinant SHP1 expressed in Escherichia coli assessed as inhibition of phosphatase activity by measuring p-nitrophenyl phosphate at 6.7 microg/ml measured after 60 mins). Details: dose 6.7 µg/ml.
Chain of Tyrosine-protein phosphatase non-receptor type 6 (Homo sapiens) (P29350 whole entry): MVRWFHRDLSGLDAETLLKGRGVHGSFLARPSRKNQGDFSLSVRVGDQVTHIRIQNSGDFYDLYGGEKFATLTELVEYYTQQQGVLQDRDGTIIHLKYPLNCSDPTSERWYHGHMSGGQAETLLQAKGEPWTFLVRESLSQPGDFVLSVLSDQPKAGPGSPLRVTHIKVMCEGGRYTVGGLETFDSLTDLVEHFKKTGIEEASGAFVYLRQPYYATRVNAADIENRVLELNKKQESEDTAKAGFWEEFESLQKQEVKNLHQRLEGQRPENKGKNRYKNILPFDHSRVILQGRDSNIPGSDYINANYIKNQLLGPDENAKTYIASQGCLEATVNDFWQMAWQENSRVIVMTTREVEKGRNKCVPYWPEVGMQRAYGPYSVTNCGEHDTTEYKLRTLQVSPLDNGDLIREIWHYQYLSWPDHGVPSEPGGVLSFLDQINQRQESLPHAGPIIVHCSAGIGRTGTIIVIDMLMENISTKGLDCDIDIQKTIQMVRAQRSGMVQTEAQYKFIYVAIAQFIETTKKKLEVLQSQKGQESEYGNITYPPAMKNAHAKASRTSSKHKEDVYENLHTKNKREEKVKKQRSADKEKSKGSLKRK
For `COC(=O)[C@]12C3=C(C)O[C@@H]4OC(=O)[C@](C)(C[C@H]5C(C)=C6CC(=O)O[C@@]6(C(C)(C)O)[C@@H](C[C@@]51C)O3)[C@@H]42`, the inhibition was < 60%. `COC(=O)CC1=C(C)[C@@H]2C[C@@]3(C)C(=O)O[C@H]4O[C@@H](C)[C@@]5(O)O[C@@H]([C@@H]6O[C@]16C(C)(C)O)[C@]2(C)[C@@]5(C(=O)OC)[C@H]43` was tested, and the inhibition was < 60%. For `CC1=C2CC(=O)OC(C)(C)[C@]23O[C@@H]3[C@@H]2O[C@@]3(O)[C@@H](C)O[C@H]4OC(=O)[C@]5(C)C[C@H]1[C@]2(C)[C@@]31C(=O)O[C@@]415`, the inhibition was < 60%. For `COC(=O)[C@]12C3=C(C)O[C@@H]4OC(=O)[C@](C)(C[C@H]5C(C)=C6CC(=O)O[C@@]6(C(C)(C)O)[C@H](O3)[C@H](O)[C@@]51C)[C@@H]42`, the inhibition was < 60%.

These compounds were tested against T3, Tyrosine-protein phosphatase non-receptor type 2 (Homo sapiens) (UniProt P17706) (assay: Inhibition of human recombinant TCPTP expressed in Escherichia coli assessed as inhibition of phosphatase activity by measuring p-nitrophenyl phosphate at 6.7 microg/ml measured after 60 mins). Details: dose 6.7 µg/ml.
T3 sequence (whole entry): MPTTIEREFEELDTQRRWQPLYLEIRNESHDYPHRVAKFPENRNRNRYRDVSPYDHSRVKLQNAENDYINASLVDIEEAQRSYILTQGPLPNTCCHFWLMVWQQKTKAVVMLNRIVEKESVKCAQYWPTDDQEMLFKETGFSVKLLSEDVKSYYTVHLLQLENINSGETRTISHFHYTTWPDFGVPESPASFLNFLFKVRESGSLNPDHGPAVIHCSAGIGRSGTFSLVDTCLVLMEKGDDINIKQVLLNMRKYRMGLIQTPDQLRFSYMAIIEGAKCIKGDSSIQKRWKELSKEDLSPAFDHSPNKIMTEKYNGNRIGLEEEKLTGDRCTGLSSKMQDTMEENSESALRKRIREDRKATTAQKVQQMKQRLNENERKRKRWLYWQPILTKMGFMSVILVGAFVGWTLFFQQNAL
`COC(=O)[C@]12C3=C(C)O[C@@H]4OC(=O)[C@](C)(C[C@H]5C(C)=C6CC(=O)O[C@@]6(C(C)(C)O)[C@@H](C[C@@]51C)O3)[C@@H]42` was tested, and the inhibition was < 60%. For `COC(=O)CC1=C(C)[C@@H]2C[C@@]3(C)C(=O)O[C@H]4O[C@@H](C)[C@@]5(O)O[C@@H]([C@@H]6O[C@]16C(C)(C)O)[C@]2(C)[C@@]5(C(=O)OC)[C@H]43`, the inhibition was < 60%. `CC1=C2CC(=O)OC(C)(C)[C@]23O[C@@H]3[C@@H]2O[C@@]3(O)[C@@H](C)O[C@H]4OC(=O)[C@]5(C)C[C@H]1[C@]2(C)[C@@]31C(=O)O[C@@]415` was tested, and the inhibition was < 60%. With `COC(=O)[C@]12C3=C(C)O[C@@H]4OC(=O)[C@](C)(C[C@H]5C(C)=C6CC(=O)O[C@@]6(C(C)(C)O)[C@H](O3)[C@H](O)[C@@]51C)[C@@H]42` the inhibition was < 60%.

The compounds below were run against T4, M-phase inducer phosphatase 2 (Homo sapiens) (UniProt P30305) (assay: Inhibition of human recombinant CDC25B expressed in Escherichia coli assessed as inhibition of phosphatase activity by measuring p-nitrophenyl phosphate at 6.7 microg/ml measured after 60 mins). Details: dose 6.7 µg/ml.
T4 sequence (whole entry): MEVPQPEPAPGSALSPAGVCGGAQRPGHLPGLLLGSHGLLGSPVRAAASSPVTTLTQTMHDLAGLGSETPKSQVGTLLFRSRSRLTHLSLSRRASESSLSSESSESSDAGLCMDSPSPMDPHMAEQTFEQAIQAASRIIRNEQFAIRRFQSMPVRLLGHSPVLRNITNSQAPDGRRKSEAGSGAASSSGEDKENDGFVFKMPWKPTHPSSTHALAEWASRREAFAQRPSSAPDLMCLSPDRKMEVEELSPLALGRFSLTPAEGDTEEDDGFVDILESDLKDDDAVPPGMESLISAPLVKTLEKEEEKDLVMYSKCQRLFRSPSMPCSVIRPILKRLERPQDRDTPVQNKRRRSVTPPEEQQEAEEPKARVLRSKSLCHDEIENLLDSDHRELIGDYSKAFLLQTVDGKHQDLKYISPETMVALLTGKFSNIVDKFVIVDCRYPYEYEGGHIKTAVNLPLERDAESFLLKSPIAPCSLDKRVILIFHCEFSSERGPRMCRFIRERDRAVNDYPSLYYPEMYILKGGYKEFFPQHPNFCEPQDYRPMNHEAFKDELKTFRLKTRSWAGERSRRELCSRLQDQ
In the case of `COC(=O)[C@]12C3=C(C)O[C@@H]4OC(=O)[C@](C)(C[C@H]5C(C)=C6CC(=O)O[C@@]6(C(C)(C)O)[C@@H](C[C@@]51C)O3)[C@@H]42`, the inhibition is reported as < 60%. In the case of `COC(=O)CC1=C(C)[C@@H]2C[C@@]3(C)C(=O)O[C@H]4O[C@@H](C)[C@@]5(O)O[C@@H]([C@@H]6O[C@]16C(C)(C)O)[C@]2(C)[C@@]5(C(=O)OC)[C@H]43`, the inhibition is reported as < 60%. For `CC1=C2CC(=O)OC(C)(C)[C@]23O[C@@H]3[C@@H]2O[C@@]3(O)[C@@H](C)O[C@H]4OC(=O)[C@]5(C)C[C@H]1[C@]2(C)[C@@]31C(=O)O[C@@]415`, the inhibition was < 60%. `COC(=O)[C@]12C3=C(C)O[C@@H]4OC(=O)[C@](C)(C[C@H]5C(C)=C6CC(=O)O[C@@]6(C(C)(C)O)[C@H](O3)[C@H](O)[C@@]51C)[C@@H]42` was tested, and the inhibition was < 60%.
